Measured values: US20060258748A1 (Chevron U.S.A. Inc., priority 2005, published 2006)

tested on: NMDA receptor; test: Whole-cell voltage-clamp recording of NMDA evoked currents in hypocretin neurons of hypothalamic slices; format: cell-based, mouse; conditions: washout of the compound

Row | Compound | reversibility of inhibition of NMDA evoked currents upon washout
1 | CC12CC3CC4C1CC1CC2C(N)(C3)C4(C)C1 (stereo not drawn) [MDT-23, 1,6-dimethyl-2-aminodiamantane] | not reversible
2 | CC12CC3CC4C1CC1CC4[C@](N)(C3)C2C1 [MDT-22, 1-methyl-7-aminodiamantane] | reversible

tested on: not listed separately; test: Dissolving compounds for 10 mM stock solutions; format: physicochemical; conditions: molecusol, acetic acid, propylene glycol, then hot water
Method: Following assay establishment, the test compounds were tested for binding affinities. The concentrations selected for the experiments were chosen according to what was found for memantine in our assay. The first task was to dissolve the compounds and make up the 10 mM stock solution for further experiments. Those compounds that were made into salt format were easy to dissolve in deionized water, but the other compounds were difficult to bring into solution. Several “assay friendly” solvents have been tried, such as molecusol, acetic acid and propylene glycol followed by putting the vial into hot water.

Row | Compound | solubility in assay friendly solvents
3 | OC12CC3CC4C1CC1CC2C(C3)C4(O)C1 [MDT-12, 1,6-dihydroxydiamantane] | went into solution
4 | O=C(O)C12CC3C4CC5(C(=O)O)CC3C(C1)C(C5)C4C2 [MDT-20, 4,9-diamantane dicarboxylic acid] | did not go into solution, or came out with time
5 | O=C(O)C12CC3CC4C5CC(CC41)CC2C5C3 [MDT-17, 1-diamantane carboxylic acid] | did not go into solution, or came out with time
6 | OC12CC3C4CC5CC3C(C1)C(C5)C4C2 [MDT-11, 4-diamantanol] | went into solution
7 | OC12CC3C4CC5(O)CC3C(C1)C(C5)C4C2 [MDT-14, 4,9-dihydroxydiamantane] | went into solution
8 | OC12CC3CC4C5CC(CC41)CC2C5C3 [MDT-10, 1-hydroxydiamantane] | went into solution
9 | OC12CC3C4CC5C6CC7(O)CC5C(C4C1)C(C2)(C7)C36 [MDT-15, 9,15-dihydroxytriamantane] | went into solution
10 | OC12CC3CC4C1CC1CC4C(O)(C3)C2C1 [MDT-13, 1,7-dihydroxydiamantane] | went into solution
11 | O=C(O)C12CC3CC4C1CC1CC2C(C3)C4(C(=O)O)C1 [MDT-19, 1,6-diamantane dicarboxylic acid] | did not go into solution, or came out with time

molecular target: NMDA receptor; test: [3H]MK-801 binding assay, NMDA receptors in guinea pig brain membranes; conditions: [3H]MK-801 1 nM, guinea pig brain membranes; read-out: Ki at the NMDA site (standard compounds)
Method: Hartley guinea pigs were sacrificed, and their brains were quickly removed and weighed. The brains then were homogenized in 50 mM Tris HCl buffer, pH 7.7, using a Polytron homogenizer. The homogenate was centrifuged at 40,000×g for 15 min, rehomogenized, and centrifuged again. The final pellet was resuspended in Tris-HCl, pH 7.7, at a final concentration of 6.67 mg original wet weight of tissue/ml. […] The samples were then filtered through glass fiber filters on a Tomtec cell harvester. The filters were washed 3 times with 3 ml of cold buffer. Filters were dried overnight and counted next day on a Wallac Betaplate Reader.
The binding experiments were conducted as follows. […] For each compound, graphs were prepared containing individual competition curves obtained for that compound. IC50 values and Hill coefficients were calculated using the program Prism. Ki values were calculated using the Chang Prusoff transformation: Ki═IC50/(1+L/Kd)
where L is radioligand concentration and Kd is the binding affinity of the radioligand, as determined previously by saturation analysis. […] In each experiment, one standard compound was simultaneously run on each 96 well plate.

Row | Compound | Ki
12 | CC12CC3CC(C)(C1)CC(N)(C3)C2 [Memantine, 1-amino-3,5-dimethyladamantane, reference compound] | 602 ± 27 nM

same assay, conditions: compared to that of Memantine

Row | Compound | Relative affinity
13 | OC12CC3CC4C1CC1CC2C(C3)C4(O)C1 [MDT-12, 1,6-dihydroxydiamantane] | 0.077
14 | NC12CC3C4CC5(N)CC3C(C1)C(C5)C4C2 [MDT-5, 4,9-diaminodiamantane] | 0.002
15 | NC12CC3C4CC5CC3C(C1)C(C5)C4C2 [MDT-3, 4-aminodiamantane] | 0.017
16 | O=C(O)C12CC3CC4C5CC(CC41)CC2C5C3 [MDT-17, 1-diamantane carboxylic acid] | 0.063
17 | OC12CC3CC4C5CC(CC41)CC2C5C3 [MDT-10, 1-hydroxydiamantane] | 0.015
18 | NC12CC3CC4C5CC(CC41)CC2C5C3 [MDT-2, 1-aminodiamantane] | 0.094
19 | CC12CC3CC(C)(C1)CC(N)(C3)C2 [Memantine, 1-amino-3,5-dimethyladamantane, reference compound] | 1
20 | NC12CC3CC4C1CC1CC2C(C3)C4(N)C1 [MDT-4, 1,6-diaminodiamantane] | 0.006
21 | O=C(O)C12CC3CC4C1CC1CC2C(C3)C4(C(=O)O)C1 [MDT-19, 1,6-diamantane dicarboxylic acid] | 0.091
